Assay results published in patent US20100035888A1, “Diaryl Urea for Treating Pulmonary Hypertension” (Bater Healthcare AG, priority 2005, published 2010).

System: monocrotaline-treated rats with pulmonary hypertension
Experiment: Pulmonary artery pressure in monocrotaline treated rats (MCT-induced pulmonary arterial hypertension)
Assay type: in vivo, rat
Conditions: 3 mg/kg by gavage once daily from day 14 to day 28 after MCT
Procedure: The effects of the compounds and drug combinations according to the invention are tested in vitro on isolated rat pulmonary arteries and in vivo in monocrotaline-treated rats with pulmonary hypertension.
Male Sprague Dawley rats (250-300 g) are treated with monocrotaline 60 mg/kg subcutanously (=day 0). On day 14 after monocrotaline injection treatment the compound/combination to be tested is administered. On day 28 hemodynamic parameters, i.e. right ventricular pressure, systemic blood pressure, heart rate, arterial and venous oxygen saturation are measured and compared with untreated control animals.
Monocrotaline (MCT) treated rats are randomized to receive 4{4-[3-(4-chloro-3-trifluoromethylphenyl)-ureido]-3-fluorophenoxy}-pyridine-2-carboxylic acid methylamide 3 mg/kg or vehicle by gavage once daily after the onset of moderate pulmonary arterial hypertension starting 14 days after the injection of MCT until day 28. […]

CNC(=O)c1cc(Oc2ccc(NC(=O)Nc3ccc(Cl)c(C(F)(F)F)c3)c(F)c2)ccn1 [BAY73-4506, 4{4-[3-(4-chloro-3-trifluoromethylphenyl)-ureido]-3-fluorophenoxy}-pyridine-2-carboxylic acid methylamide]
mortality rate (control 0%, placebo 40%): 0% | right ventricle/left ventricle+septum ratio (right ventricular hypertrophy) (mean±SEM, control 0.25±0.01, placebo 0.62±0.02): 0.28±0.01
